Molecular target: full-length FhlA (Escherichia coli, UniProt P19323)
Assay type: binding
Conditions: 32 uM protein; 10 mM Tris pH 8, 100 mM NaCl, 5 mM MgCl2, on ice; labelled compound

full-length FhlA, sequence (P19323 whole entry): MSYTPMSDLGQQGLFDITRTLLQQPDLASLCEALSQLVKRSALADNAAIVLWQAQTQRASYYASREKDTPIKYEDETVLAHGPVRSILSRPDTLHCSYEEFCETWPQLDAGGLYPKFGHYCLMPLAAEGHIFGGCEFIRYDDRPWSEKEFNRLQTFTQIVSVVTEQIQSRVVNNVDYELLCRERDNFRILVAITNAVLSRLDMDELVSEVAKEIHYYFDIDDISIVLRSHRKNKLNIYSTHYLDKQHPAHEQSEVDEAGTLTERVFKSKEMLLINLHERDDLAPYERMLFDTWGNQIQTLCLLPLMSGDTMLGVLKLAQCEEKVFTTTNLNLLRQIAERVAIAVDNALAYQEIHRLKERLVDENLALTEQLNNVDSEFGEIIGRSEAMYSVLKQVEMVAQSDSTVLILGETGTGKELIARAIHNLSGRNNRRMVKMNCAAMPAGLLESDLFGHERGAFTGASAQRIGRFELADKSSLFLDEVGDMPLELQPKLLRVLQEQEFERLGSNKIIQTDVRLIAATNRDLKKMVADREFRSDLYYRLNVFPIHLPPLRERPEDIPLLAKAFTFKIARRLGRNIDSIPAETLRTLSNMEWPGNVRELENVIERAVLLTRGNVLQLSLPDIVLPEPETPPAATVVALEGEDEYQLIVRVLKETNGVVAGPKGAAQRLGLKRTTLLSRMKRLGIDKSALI

For `O=CO` [formate], which “14C-formate DRaCALA” value is on record?
The value was “DRaCALA with full-length purified FhlA, and full-length E183K and E363K derivatives produced similar pattern”.

Reference: doi:10.1101/2024.07.24.604796 (bioRxiv, 2024)
